Assay results from PMC12184107 (Cell Cycle, 2024).

What was measured:
LGR5 = settings: gastric cancer, phage display; cited from earlier work
[1] = target: T1, recombinant human LGR5 (leucine-rich repeat-containing G-protein-coupled receptor 5) (human) (UniProt O75473); assay: ELISA
T1 sequence (O75473 whole entry, looked up): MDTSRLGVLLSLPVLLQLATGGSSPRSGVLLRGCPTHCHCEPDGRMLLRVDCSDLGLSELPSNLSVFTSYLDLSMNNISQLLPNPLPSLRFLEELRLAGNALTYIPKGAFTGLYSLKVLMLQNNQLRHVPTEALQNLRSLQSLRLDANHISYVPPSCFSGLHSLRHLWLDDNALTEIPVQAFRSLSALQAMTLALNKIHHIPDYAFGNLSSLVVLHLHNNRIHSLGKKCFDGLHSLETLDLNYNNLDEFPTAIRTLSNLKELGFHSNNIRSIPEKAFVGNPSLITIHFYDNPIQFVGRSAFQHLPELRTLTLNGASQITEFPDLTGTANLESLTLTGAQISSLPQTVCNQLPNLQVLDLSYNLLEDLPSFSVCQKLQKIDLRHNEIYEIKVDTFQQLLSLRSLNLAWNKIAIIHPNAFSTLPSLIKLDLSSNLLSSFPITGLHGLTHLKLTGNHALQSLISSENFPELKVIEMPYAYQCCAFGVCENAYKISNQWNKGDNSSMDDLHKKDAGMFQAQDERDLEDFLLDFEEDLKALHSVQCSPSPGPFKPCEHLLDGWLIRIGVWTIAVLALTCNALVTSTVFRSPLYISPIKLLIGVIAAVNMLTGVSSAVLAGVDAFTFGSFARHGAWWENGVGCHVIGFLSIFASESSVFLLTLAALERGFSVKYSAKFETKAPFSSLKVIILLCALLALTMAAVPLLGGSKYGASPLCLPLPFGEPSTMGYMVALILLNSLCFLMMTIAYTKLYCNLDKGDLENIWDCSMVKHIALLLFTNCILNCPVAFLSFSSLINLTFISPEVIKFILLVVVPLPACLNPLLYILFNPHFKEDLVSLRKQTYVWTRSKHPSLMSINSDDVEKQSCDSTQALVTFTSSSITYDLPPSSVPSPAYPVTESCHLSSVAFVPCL

EC50 [1] [nM]	Substance	LGR5 binding (LGR5)
	IPQILSI	possessed LGR5 binding capabilities
0.04	recombinant human R-spondin 1 (from UniProt Q2MKA7 21-263) (ligand)	
